These molecules were tested against wild-type human cardiac sodium channel, hNav1.5 (Homo sapiens, UniProt Q14524) (assay: Late INa screening assay (late sodium current, PatchXpress whole cell patch clamp)). Settings: compound at 10 μM; read-out: Late INa % blk.
Type: cell-based
Protocol: The late sodium current (Late INa) and peak sodium current (Peak INa) assays are performed on an automated electrophysiology platform, PatchXpress 7000A (MDS Analytical Technologies, Sunnyvale, Calif.), which uses the whole cell patch clamp technique to measure currents through the cell membrane of up to 16 cells at a time. The assay uses an HEK293 (human embryonic kidney) cell line heterologously expressing the wild-type human cardiac sodium channel, hNav1.5, purchased from Millipore (Billerica, Mass.). No beta subunits were coexpressed with the Na channel alpha subunit. […] Experiments are carried out at 24-27° C.
For both the Late INa and Peak INa assays, series resistance compensation is set to 50% and whole-cell compensation is performed automatically. […] Currents through open sodium channels are automatically recorded and stored in the DataXpress2 database (MDS Analytical Technologies, Sunnyvale, Calif.). Analysis is performed using DataXpress2 analysis software and data are compiled in Excel.
Compound stocks are routinely made in glass vials to 10 mM in dimethyl sulfoxide (DMSO). In some cases, when compounds are not soluble in DMSO, they are made in 100% ethanol. Stocks are sonicated as necessary. The extracellular solution for screening Late INa is composed of: 140 mM NaCl, 4 mM KCl, 1.8 mM CaCl2, 0.75 mM MgCl2, and 5 mM HEPES with pH adjusted to 7.4 using NaOH. The extracellular solution for screening Peak INa is composed of: 20 mM NaCl, 120 mM N-methyl-D glucamine, 4 mM KCl, 1.8 mM CaCl2, 0.75 mM MgCl2, and 5 mM HEPES with pH adjusted to 7.4 using HCl. The intracellular solution used to perfuse the inside of the cells for both the Late INa and Peak INa assays contains: 120 mM CsF, 20 mM CsCl, 5 mM EGTA, 5 mM HEPES and pH adjusted to 7.4 with CsOH. Compounds are diluted in extracellular solution to 10 μM in glass vials and then transferred to glass well plates before robotic addition to the cells. The 0 Na extracellular solution used at the end of each experiment for the Late INa and Peak INa assays to measure baseline current contains: 140 mM N-methyl-D-glucamine; 4 mM KCl; 1.8 mM CaCl2; 0.75 mM MgCl2; 5 mM HEPES and pH was adjusted to 7.4 with HCl.
For the Late INa assay, sodium channels are activated every 10 seconds (0.1 Hz) by depolarizing the cell membrane to −20 mV for 250 milliseconds (ms) from a holding potential of −120 mV.
All compounds are tested to determine their activity in blocking the late sodium current. Late INa current is generated by adding 10 μM Tefluthrin (pyrethroid) to the extracellular solution while recording Na currents. […] For some experiments, 50 nM ATX II (sea anemone toxin), another late INa activator, was used to generate the late component. […] Baseline current in the absence of Na^+ ions is measured at the end of each experiment (after two additions of 0 Na solution-see above) and is used to calculate the percent block by compound.

wild-type human cardiac sodium channel, hNav1.5, sequence (Q14524 whole entry): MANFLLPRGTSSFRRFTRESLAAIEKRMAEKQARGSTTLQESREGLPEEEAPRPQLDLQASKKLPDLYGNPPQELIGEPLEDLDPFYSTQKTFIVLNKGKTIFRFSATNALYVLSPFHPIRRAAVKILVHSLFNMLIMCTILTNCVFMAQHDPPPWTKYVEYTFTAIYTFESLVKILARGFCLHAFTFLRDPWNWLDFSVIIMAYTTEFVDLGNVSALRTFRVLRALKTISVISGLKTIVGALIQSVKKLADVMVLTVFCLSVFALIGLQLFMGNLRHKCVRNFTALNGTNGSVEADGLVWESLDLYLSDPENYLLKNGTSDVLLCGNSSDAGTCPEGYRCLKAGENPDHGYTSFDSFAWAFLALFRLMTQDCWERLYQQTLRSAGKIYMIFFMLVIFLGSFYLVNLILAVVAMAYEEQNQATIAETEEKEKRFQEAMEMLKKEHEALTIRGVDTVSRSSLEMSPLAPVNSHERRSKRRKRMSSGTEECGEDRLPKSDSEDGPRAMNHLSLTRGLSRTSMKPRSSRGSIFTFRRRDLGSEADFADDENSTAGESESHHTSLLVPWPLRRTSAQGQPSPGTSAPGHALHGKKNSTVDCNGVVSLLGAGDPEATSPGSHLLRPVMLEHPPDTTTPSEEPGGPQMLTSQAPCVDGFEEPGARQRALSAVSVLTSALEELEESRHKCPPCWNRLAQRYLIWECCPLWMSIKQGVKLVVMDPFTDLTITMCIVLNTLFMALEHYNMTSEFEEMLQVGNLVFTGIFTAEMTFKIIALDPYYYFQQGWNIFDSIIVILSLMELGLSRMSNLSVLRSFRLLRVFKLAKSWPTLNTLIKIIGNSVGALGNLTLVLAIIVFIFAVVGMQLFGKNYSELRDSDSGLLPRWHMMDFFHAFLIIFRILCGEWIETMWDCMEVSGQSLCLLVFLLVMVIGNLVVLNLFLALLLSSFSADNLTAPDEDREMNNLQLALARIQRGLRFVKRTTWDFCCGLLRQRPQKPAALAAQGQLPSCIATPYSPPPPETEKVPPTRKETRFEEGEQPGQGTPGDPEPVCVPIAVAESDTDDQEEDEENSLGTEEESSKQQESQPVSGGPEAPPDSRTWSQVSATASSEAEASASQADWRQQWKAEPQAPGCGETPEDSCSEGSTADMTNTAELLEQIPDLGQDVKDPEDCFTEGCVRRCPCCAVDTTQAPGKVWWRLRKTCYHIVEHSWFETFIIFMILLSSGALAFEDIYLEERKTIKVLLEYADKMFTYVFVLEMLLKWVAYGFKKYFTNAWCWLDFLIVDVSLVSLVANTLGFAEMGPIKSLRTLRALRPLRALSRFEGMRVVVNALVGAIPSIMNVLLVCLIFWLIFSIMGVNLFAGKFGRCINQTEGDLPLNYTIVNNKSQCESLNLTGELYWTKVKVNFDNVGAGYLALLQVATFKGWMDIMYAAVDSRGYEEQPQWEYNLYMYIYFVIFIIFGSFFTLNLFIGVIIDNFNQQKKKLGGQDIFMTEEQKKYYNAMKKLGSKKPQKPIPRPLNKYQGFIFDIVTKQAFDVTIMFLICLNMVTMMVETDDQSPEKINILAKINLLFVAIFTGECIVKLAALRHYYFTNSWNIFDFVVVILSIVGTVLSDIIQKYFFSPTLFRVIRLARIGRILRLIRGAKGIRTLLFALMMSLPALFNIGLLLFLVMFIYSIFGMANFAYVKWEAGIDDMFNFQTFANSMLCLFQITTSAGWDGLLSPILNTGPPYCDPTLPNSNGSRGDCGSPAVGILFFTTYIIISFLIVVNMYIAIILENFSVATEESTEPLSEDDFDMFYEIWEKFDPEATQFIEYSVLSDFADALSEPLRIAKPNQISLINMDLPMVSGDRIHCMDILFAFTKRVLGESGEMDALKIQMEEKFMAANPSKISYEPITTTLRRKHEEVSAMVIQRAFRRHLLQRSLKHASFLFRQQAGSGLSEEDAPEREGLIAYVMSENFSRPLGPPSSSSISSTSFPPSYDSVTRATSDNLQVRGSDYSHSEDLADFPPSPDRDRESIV

First: COc1ccc2ccccc2c1C1C(C(=O)O[C@@H](C)c2ccccc2)=C(C)Nc2nnnn21 (stereo partly drawn) [PT-053, (S)-1-phenylethyl 7-(2-methoxynaphthalen-1-yl)-5-methyl-4,7-dihydrotetrazolo[1,5-a]pyrimidine-6-carboxylate]
Second: CC1=C(C(=O)O[C@@H](C)c2ccccc2)C(c2ccc(N(C)C)c3ccccc23)n2nnnc2N1 (stereo partly drawn) [PT-054, (S)-1-phenylethyl 7-(4-(dimethylamino)naphthalen-1-yl)-5-methyl-4,7-dihydrotetrazolo[1,5-a]pyrimidine-6-carboxylate]
The inhibition at 10 µM of the first is lower: 53.6% for the first, 72.4% for the second.

First: CC1=C(C(=O)O[C@@H](C)c2ccccc2)C(c2cc3ccccc3o2)n2nnnc2N1 (stereo partly drawn) [PT-058, (S)-1-phenylethyl 7-(benzofuran-2-yl)-5-methyl-4,7-dihydrotetrazolo[1,5-a]pyrimidine-6-carboxylate]
Second: CCC(OC(=O)C1=C(C)Nc2nnnn2C1c1cccc2ccccc12)c1ccccc1 (stereo not shown) [PT-063, 1-phenylpropyl 5-methyl-7-(naphthalen-1-yl)-4,7-dihydrotetrazolo[1,5-a]pyrimidine-6-carboxylate]
The inhibition at 10 µM of the first is higher: 71.4% for the first, 47.5% for the second.

Compared with CC1=C(C(=O)OCc2ccc(-c3nnn[nH]3)cc2)C(c2cccc3ccccc23)n2nnnc2N1 (stereo not shown) [PT-060, 4-(1H-tetrazol-5-yl)benzyl 5-methyl-7-(naphthalen-1-yl)-4,7-dihydrotetrazolo[1,5-a]pyrimidine-6-carboxylate], CC1=C(C(=O)NCc2ccccc2)C(c2cccc3ccccc23)n2nnnc2N1 (stereo not shown) [PT-067, N-benzyl-5-methyl-7-(naphthalen-1-yl)-4,7-dihydrotetrazolo[1,5-a]pyrimidine-6-carboxamide] is higher in inhibition at 10 µM: 5.6% for the first, 24.4% for the second.

First: CC1=C(C(=O)OC(C)(C)c2ccccc2)C(c2cccc3ccccc23)n2nnnc2N1 (stereo not shown) [PT-065, 2-phenylpropan-2-yl 5-methyl-7-(naphthalen-1-yl)-4,7-dihydrotetrazolo[1,5-a]pyrimidine-6-carboxylate]
Second: CC1=C(C(=O)N[C@H](C)c2ccccc2)C(c2cccc3ccccc23)n2nnnc2N1 (stereo partly drawn) [PT-070, 5-methyl-7-(naphthalen-1-yl)-N-((R)-1-phenylethyl)-4,7-dihydrotetrazolo[1,5-a]pyrimidine-6-carboxamide]
The inhibition at 10 µM of the first is higher: 59% for the first, 9.9% for the second.

Compared with CC1=C(C(=O)N2CCC(c3ccccc3)CC2)C(c2cccc3ccccc23)n2nnnc2N1 (stereo not shown) [PT-066, (5-methyl-7-(naphthalen-1-yl)-4,7-dihydrotetrazolo[1,5-a]pyrimidin-6-yl)(4-phenylpiperidin-1-yl)methanone], CC1=C(C(=O)N[C@@H](C)c2ccccc2)C(c2cccc3ccccc23)n2nnnc2N1 (stereo partly drawn) [PT-071, 5-methyl-7-(naphthalen-1-yl)-N-((S)-1-phenylethyl)-4,7-dihydrotetrazolo[1,5-a]pyrimidine-6-carboxamide] is lower in inhibition at 10 µM: 22.2% for the first, 16.3% for the second.

Compared with CC1=C(C(=O)NNC(=O)c2ccccc2)C(c2cccc3ccccc23)n2nnnc2N1 (stereo not shown) [PT-069, N′-benzoyl-5-methyl-7-(naphthalen-1-yl)-4,7-dihydrotetrazolo[1,5-a]pyrimidine-6-carbohydrazide], O=C1CCCC2=C1C(c1cccc3ccccc13)n1nnnc1N2 (stereo not shown) [PT-072, 9-(naphthalen-1-yl)-5,6,7,9-tetrahydrotetrazolo[5,1-b]quinazolin-8(4H)-one] is lower in inhibition at 10 µM: 11.5% for the first, -0.9% for the second.

First: CCOC(=O)C1=C(C)Nc2[nH]nc(-c3ccc(C)cc3)c2C1c1cccc2ccccc12 (stereo not shown) [PT-073, ethyl 6-methyl-4-(naphthalen-1-yl)-3-p-tolyl-4,7-dihydro-1H-pyrazolo[3,4-b]pyridine-5-carboxylate]
Second: CC1=C(C(=O)OCc2ccccc2)C(c2cccc3ccccc23)c2c(-c3ccc(C)cc3)n[nH]c2N1 (stereo not shown) [PT-077, benzyl 6-methyl-4-(naphthalen-1-yl)-3-p-tolyl-4,7-dihydro-1H-pyrazolo[3,4-b]pyridine-5-carboxylate]
The inhibition at 10 µM of the first is lower: -3.2% for the first, -2.6% for the second.

First: CCOC(=O)C1=C(C)Nc2[nH]ncc2C1c1cccc2ccccc12 (stereo not shown) [PT-075, ethyl 6-methyl-4-(naphthalen-1-yl)-4,7-dihydro-1H-pyrazolo[3,4-b]pyridine-5-carboxylate]
Second: CCOC(=O)C1=C(C)Nc2nccn2C1c1cccc2ccccc12 (stereo not shown) [PT-087, ethyl 7-methyl-5-(naphthalen-1-yl)-5,8-dihydroimidazo[1,2-a]pyrimidine-6-carboxylate]
The inhibition at 10 µM of the first is higher: 26.5% for the first, 16.5% for the second.

Compared with CC1=C(C(=O)OCc2ccccc2)C(c2cccc3ccccc23)c2c(-c3cccs3)n[nH]c2N1 (stereo not shown) [PT-076, benzyl 6-methyl-4-(naphthalen-1-yl)-3-(thiophen-2-yl)-4,7-dihydro-1H-pyrazolo[3,4-b]pyridine-5-carboxylate], Cc1nn(-c2ccccc2)c2c1C(c1cccc3ccccc13)C1=C(COC1=O)N2 (stereo not shown) [PT-083, 3-methyl-4-(naphthalen-1-yl)-1-phenyl-7,8-dihydro-1H-furo[3,4-e]pyrazolo[3,4-b]pyridin-5(4H)-one] is higher in inhibition at 10 µM: -4.3% for the first, 30% for the second.

First: Cc1n[nH]c2c1C(c1cccc3ccccc13)C1=C(COC1=O)N2 (stereo not shown) [PT-081, 3-methyl-4-(naphthalen-1-yl)-7,8-dihydro-1H-furo[3,4-e]pyrazolo[3,4-b]pyridin-5(4H)-one]
Second: O=C1OCC2=C1C(c1cccc3ccccc13)c1cn[nH]c1N2 (stereo not shown) [PT-084, 4-(naphthalen-1-yl)-7,8-dihydro-1H-furo[3,4-e]pyrazolo[3,4-b]pyridin-5(4H)-one]
The inhibition at 10 µM of the first is lower: 16.6% for the first, 16.9% for the second.

Going from O=C1OCC2=C1C(c1cccc3ccccc13)c1cnn(-c3ccccc3)c1N2 (stereo not shown) [PT-082, 4-(naphthalen-1-yl)-1-phenyl-7,8-dihydro-1H-furo[3,4-e]pyrazolo[3,4-b]pyridin-5(4H)-one] to CC1(C)CC(=O)C2=C(C1)OC(N)=C(C#N)C2c1cccc(C(=O)O)c1 (stereo not shown) [PT-098, 3-(2-amino-3-cyano-7,7-dimethyl-5-oxo-5,6,7,8-tetrahydro-4H-chromen-4-yl)benzoic acid], the inhibition at 10 µM falls from 43.1% to -27.9%.

Compared with CCOC(=O)C1=C(C)OC(N)=C(C#N)C1c1ccco1 (stereo not shown) [PT-092, ethyl 6-amino-5-cyano-4-(furan-2-yl)-2-methyl-4H-pyran-3-carboxylate], N#CC1=C(N)OC2=C(C(=O)CC2)C1c1ccc(Br)cc1 (stereo not shown) [PT-093, 2-amino-4-(4-bromophenyl)-5-oxo-4,5,6,7-tetrahydrocyclopenta[b]pyran-3-carbonitrile] is lower in inhibition at 10 µM: -0.2% for the first, -2.6% for the second.

CCOC(=O)C1=C(C)NC(C)=C(C(=O)OCC)C1c1ccc(C(=O)O)s1 [PT-112, 5-(3,5-bis(ethoxycarbonyl)-2,6-dimethyl-1,4-dihydropyridin-4-yl)thiophene-2-carboxylic acid] gave an inhibition at 10 µM of -24.9%.

Same assay, conditions: read-out: Late INa % blk

Compared with Cc1ccc(-c2n[nH]c3c2C(c2cccc4ccccc24)C2=C(COC2=O)N3)cc1 (stereo not shown) [PT-078], O=C1OCC2=C1C(c1cccc3ccccc13)c1c(-c3ccco3)n[nH]c1N2 (stereo not shown) [PT-080, 3-(furan-2-yl)-4-(naphthalen-1-yl)-7,8-dihydro-1H-furo[3,4-e]pyrazolo[3,4-b]pyridin-5(4H)-one] is lower in inhibition at 10 µM: 46.3% for the first, 31.9% for the second.

CCOC(=O)C1=C(C)Nc2c(C#N)cnn2C1c1cccc2ccccc12 (stereo not shown) [PT-091, ethyl 3-cyano-5-methyl-7-(naphthalen-1-yl)-4,7-dihydropyrazolo[1,5-a]pyrimidine-6-carboxylate] was tested, and the inhibition at 10 µM was 48.4%.
